Test results taken from patent publication US20060154984A1, “Therapeutic use of acyl glycerols and the nitrogen- and sulphur- containing analogues thereof” (priority 2003, published 2006).

Tests used:
LDL = LDL oxidation by copper, conjugated diene formation (OD 234 nm); format: biochemical; settings: 10^−4 M
Description: Oxidation of LDL is an important modification which plays a major role in the onset and development of atherosclerosis (Jurgens, Hoff et al. 1987). […] Unless otherwise indicated, all reagents were from Sigma (St Quentin, France).
LDL were prepared as described by Lebeau et al. (Lebeau, Furman et al. 2000). The solutions of the test compounds were prepared at 10^−2 M in ethanol and diluted in PBS so that the final concentration ranged from 0.1 to 100 μM with a total ethanol concentration of 1% (VN).
Before oxidation, EDTA was removed from the LDL preparation by dialysis. The oxidation reaction was then carried out at 30° C. by adding 100 μl of 16.6 μM CuSO4 to 800 μl of LDL (125 μg protein/ml) and 100 μl of a test compound solution. The formation of dienes, the species to be followed, was measured by the optical density at 234 nm in the samples treated with the compounds in the presence or absence of copper. Optical density at 234 nm was measured every 10 minutes for 8 hours on a thermostated spectrophotometer (Kontron Uvikon 930). The analyses were carried out in triplicate. A compound was considered to have antioxidant activity when it shifted the lag phase latency relative to the control sample. […] FIG. 4 presents an example of the results obtained with the inventive compounds.

PPARα = biological target: T1, PPARα (Homo sapiens, UniProt Q07869); assay: Gal4/PPARα transactivation system in HepG2 cells (luciferase reporter); format: cell-based; settings: HepG2 cells transfected with Gal4/PPARα plasmids, 24 h
T1 construct: expressed in transfected cells; host or cells: HepG2
T1 sequence (Q07869 239-466 limits assumed): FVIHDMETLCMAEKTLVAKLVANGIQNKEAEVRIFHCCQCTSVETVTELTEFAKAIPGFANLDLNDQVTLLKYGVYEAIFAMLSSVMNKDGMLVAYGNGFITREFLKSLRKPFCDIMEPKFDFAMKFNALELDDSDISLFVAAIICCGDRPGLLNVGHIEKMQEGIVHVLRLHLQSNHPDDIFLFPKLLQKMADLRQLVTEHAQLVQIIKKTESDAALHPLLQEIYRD
Description: PPAR activation was tested in vitro in RK13 fibroblast cell lines or in a hepatocyte line HepG2 by measuring the transcriptional activity of chimeras composed of the DNA binding domain of the yeast gal4 transcription factor and the ligand binding domain of the different PPARs. The example below is given for HepG2 cells.
HepG2 cells were from ECACC (Porton Down, UK) and were grown in DMEM medium supplemented with 10% (VN) fetal calf serum, 100 U/ml penicillin (Gibco, Paisley, UK) and 2 mM L-glutamine (Gibco, Paisley, UK). The culture medium was changed every two days. Cells were kept at 37° C. in a humidified 95% air/5% CO2 atmosphere.
The plasmids pG5TkpGL3, PRL-CMV, pGal4-hPPARα, pGal4-hPPARγ and pGal4-f have been described by Raspe et al. (Raspe, Madsen et al. 1999). The pGal4-mPPARα and pGal4-hPPARβ constructs were obtained by cloning PCR-amplified DNA fragments corresponding to the DEF domains of the mouse PPARα and […] nuclear receptors, respectively, into the pGal4-f vector.
HepG2 cells were seeded in 24-well culture dishes at 5×10^4 cells/well and transfected for 2 hours with the reporter plasmid pG5TkpGL3 (50 ng/well), the expression vectors pGal4-f, pGal4-mPPARα, pGal4-hPPARα, pGal4-hPPARγ, or pGal4-hPPARβ (100 ng/well) and the transfection efficiency control vector pRL-CMV (1 ng/well) according to the previously described protocol (Raspe, Madsen et al. 1999), then incubated for 36 hours with the test compounds. At the end of the experiment, the cells were lysed (Gibco, Paisley, UK) and luciferase activity was determined with a Dual-Luciferase™ Reporter Assay System kit (Promega, Madison, Wis., USA) according to the supplier's instructions. The protein content of the cell extracts was then measured with the Bio-Rad Protein Assay kit (Bio-Rad, Munich, Germany) as directed by the supplier. […] FIG. 3 gives an example of the results obtained with the inventive compounds.
FIG. 3: HepG2 cells transfected with Gal4/PPARα plasmids were incubated with different concentrations (5, 15, 50 and 100 μM) of the inventive comopunds (Ex 2a, Ex 4a, Ex 4p, Ex 5a, Ex 7 and Ex 11) for 24 h and with different concentrations of the vehicle (PC) noted 1, 2, 3, 4 as controls for the 5, 15, 50 and 100 μM concentrations of the inventive compounds (according to the 4:1 (m/m) ratio described in example 2 (Method of preparation of the inventive compounds for in vitro studies)). The results are expressed as the induction factor (luminescent signal of treated cells divided by luminescent signal of untreated cells) after the different treatments. […] The induction factors for inventive compound Ex 4p were 35 at 100 μM, 44 at 50 μM, 36 at 15 μM and 24 at 5 μM. The induction factors for compound Ex 5a were 32 at 100 μM, 34 at 50 μM, 15 at 15 μM and 4 at 5 μM. Finally, inventive compound Ex 7 induced a 19-fold induction at 100 μM, 19 at 50 μM, 7 at 15 μM and 1.5 at 5 μM. In contrast, when the cells were incubated with the vehicle (PC liposome), no significant induction was observed.

## CCCCCCCCCCCCCCSCC(=O)OCC(COC(=O)CSCCCCCCCCCCCCCC)OC(=O)CSCCCCCCCCCCCCCC [Ex 4a, 1,2,3-tritetradecylthioacetylglycerol]
LDL; copper alone 3 nmol/min/mg of LDL
  LDL oxidation rate (rate of conjugated diene formation): 1 nmol/min/mg of LDL
LDL; copper alone 496 nmol per mg of LDL
  decrease in the maximum amount of conjugated dienes formed: 60%
LDL; copper alone 104 minutes
  lag phase for conjugated diene formation: 270 min
LDL; relative to copper alone
  decrease in the oxidation rate: 66%
  increase in the lag phase: 160%
PPARα; 5 μM
  induction factor (luminescent signal of treated cells divided by luminescent signal of untreated cells): 6 fold
PPARα; 15 μM
  induction factor (luminescent signal of treated cells divided by luminescent signal of untreated cells): 15 fold
PPARα; 50 μM
  induction factor (luminescent signal of treated cells divided by luminescent signal of untreated cells): 23 fold
PPARα; 100 μM
  induction factor (luminescent signal of treated cells divided by luminescent signal of untreated cells): 33 fold
